Literature values in patent US20080171724A1, “Phosphonate Derivatives of Mycophenolic Acid” (GILEAD SCIENCES, INC., priority 2004, published 2008).

Settings: after oral or intravenous administration; converted to active metabolite mycophenolic acid

## COc1c(C)c2c(c(O)c1C/C=C(\C)CCC(=O)OCCN1CCOCC1)C(=O)OC2 [Mycophenolate mofetil]
  fraction of the drug cleared by glucuronidation and excreted in the urine: over 90%
